Data published in ChEMBL document CHEMBL1133776, “A rapid computational method for lead evolution: description and application to alpha(1)-adrenergic antagonists” (J Med Chem, 2000).

Biological target: T1, Adrenergic receptor alpha-1 (Rattus norvegicus, UniProt P15823+P23944+P43140)
T1 sequence (P15823 whole entry): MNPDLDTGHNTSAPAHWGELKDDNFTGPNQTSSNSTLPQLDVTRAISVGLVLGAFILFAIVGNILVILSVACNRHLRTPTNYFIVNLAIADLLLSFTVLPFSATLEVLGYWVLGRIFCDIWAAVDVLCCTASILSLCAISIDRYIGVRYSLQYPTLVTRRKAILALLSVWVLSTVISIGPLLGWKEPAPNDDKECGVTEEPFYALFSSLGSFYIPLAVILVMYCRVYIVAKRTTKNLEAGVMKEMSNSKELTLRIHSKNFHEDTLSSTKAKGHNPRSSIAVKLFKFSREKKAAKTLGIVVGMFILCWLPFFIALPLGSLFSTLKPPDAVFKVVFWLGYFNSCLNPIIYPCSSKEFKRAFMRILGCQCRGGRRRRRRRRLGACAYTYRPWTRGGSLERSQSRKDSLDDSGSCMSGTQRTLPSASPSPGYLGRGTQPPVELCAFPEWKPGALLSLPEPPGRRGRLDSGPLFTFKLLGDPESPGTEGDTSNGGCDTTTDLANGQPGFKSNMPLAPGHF
T1 sequence (P23944 whole entry): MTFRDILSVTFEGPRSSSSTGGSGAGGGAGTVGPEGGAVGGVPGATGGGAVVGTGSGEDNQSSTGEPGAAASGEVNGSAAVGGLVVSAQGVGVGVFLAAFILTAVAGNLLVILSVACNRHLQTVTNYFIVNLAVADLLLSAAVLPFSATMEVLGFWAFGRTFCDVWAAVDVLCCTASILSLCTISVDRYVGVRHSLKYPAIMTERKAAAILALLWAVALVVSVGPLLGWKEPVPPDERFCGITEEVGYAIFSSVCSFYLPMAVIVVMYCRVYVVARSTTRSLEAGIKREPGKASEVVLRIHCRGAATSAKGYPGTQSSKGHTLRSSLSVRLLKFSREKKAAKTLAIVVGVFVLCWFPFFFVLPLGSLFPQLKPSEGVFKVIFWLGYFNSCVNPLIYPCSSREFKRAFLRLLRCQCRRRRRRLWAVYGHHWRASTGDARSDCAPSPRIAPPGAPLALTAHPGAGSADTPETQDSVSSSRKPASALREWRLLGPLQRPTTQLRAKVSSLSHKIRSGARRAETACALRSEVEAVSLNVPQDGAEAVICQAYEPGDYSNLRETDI
T1 sequence (P43140 whole entry): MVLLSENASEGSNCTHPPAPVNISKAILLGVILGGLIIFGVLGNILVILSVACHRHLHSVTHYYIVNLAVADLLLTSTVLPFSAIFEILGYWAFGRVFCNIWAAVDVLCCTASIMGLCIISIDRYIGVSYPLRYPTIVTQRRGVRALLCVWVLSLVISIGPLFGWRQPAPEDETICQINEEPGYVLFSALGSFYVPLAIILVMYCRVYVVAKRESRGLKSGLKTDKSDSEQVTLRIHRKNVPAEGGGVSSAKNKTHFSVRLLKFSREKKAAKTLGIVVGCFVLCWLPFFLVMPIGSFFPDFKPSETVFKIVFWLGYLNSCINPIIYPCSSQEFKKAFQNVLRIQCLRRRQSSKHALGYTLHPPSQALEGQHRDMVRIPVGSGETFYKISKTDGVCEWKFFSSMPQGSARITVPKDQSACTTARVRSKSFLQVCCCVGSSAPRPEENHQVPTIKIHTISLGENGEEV
Experiment: Evaluated for binding affinity against alpha-1 adrenergic receptor
Format: protein assay

Ki: 0.54 nM
Compound: COc1cccc(OC)c1OCCNCC1COc2ccccc2O1 (stereo unspecified)
